Data as given in patent publication US12134607B2, “Crystals of tetrahydronaphthyl urea derivative” (MOCHIDA PHARMACEUTICAL CO., LTD., priority 2017, dated 2024).
In brackets after ≈: the same amount, converted by molar mass.

What was measured:
human TrkA protein = human TrkA protein (Homo sapiens (Human), UniProt P04629); assay: Evaluation on binding activity against human TrkA protein (TrkA LanthaScreen Eu Kinase Binding Assay)
Method: (Pharmacology Experiment 1): Evaluation on Binding Activity Against Human TrkA Protein
Measurements were made using TrkA LanthaScreen™ Eu Kinase Binding Assay (ThermoFisher SCIENTIFIC). Into 384 well plates (Corning), a 2.5 μL solution having each concentration of the test compound (1) diluted in Kinase buffer (ThermoFisher SCIENTIC) and a 2.5 μL having 15 nM TrkA enzyme (ThermoFisher SCIENTIFIC) were added. In addition, a 5 μL having 3 nM Eu-anti-His Tag […] (ThermoFisher SCIENTIFIC) and 5 μL having 30 nM Kinase™ Tracer 236 (ThermoFisher SCIENTIFIC) were added, and allowed to react at room temperature for 60 minutes. After the reaction, the fluorescence ratio was calculated as the binding amount of the test compound (1) with TrkA enzyme, by measuring the fluorescence intensity (Emission wavelength 615 nm) and TR-FRET (Emission wavelength 665 nm) of Europium by the excitation wavelength of 340 nm using EnVision 2100 (PerkinElmer). […]
The inhibitory activity of each crystal of the test compound (1), which is 1-((1R,2R)-2-hydroxy-4,4-dimethyl-1,2,3,4-tetrahydronaphthalen-1-yl)-3-(5-methyl-6-(2-methylpyrimidin-5-yl)-2-phenylpyridin-3-yl)urea can be assessed by IC50 value.

[1] = Safety observation in pharmacology experiments 3 and 4 in rats; type: in vivo; details: oral administration
Method: (Pharmacology Experiment 3): Inhibitory Effect on NGF-Induced Vascular Permeability Increase in Rats
The inhibitory activity against TrkA in vivo was evaluated. Clipped back male Sprague-Dawley rats (CD(SD)IGS rats, Charles River, Japan) were orally administered test compound (1) dissolved or suspended in a solvent (dose volume: 5 mL/kg). Vehicle controls were treated orally with vehicle. […] A 200 μL of the formamide extract was transferred to a 96-well plate (Nunc), and the absorbance (wavelength: 620 nm) of Evans blue extracted into formamide was measured using SpectraMax (Molecular Device). […]
The analgesic effect of the test compound (1) was evaluated in a CFA-induced rat model. […]
Measurements were made 7 days after CFA administration. After calming the animals to the measurement environment for at least 1 hour, the footpads were stimulated with von Frey filaments according to the Dixon up-down method (Journal of Neuroscience Methods, Vol. 53, pp. 55-63, 1994), and then 50% threshold (g) was calculated by the following equation. […]

[2] = Determination of equilibrium solubility in phosphate buffer solution with pH 6.8; type: physicochemical; details: pH 6.8 phosphate buffer, 37° C., mean value of three measurements
Excerpt: (Test Example 1) Determination of Equilibrium Solubility (Determination of Solubility in Phosphate Buffer Solution with pH 6.8)
Each of the equilibrium solubilities (solubility in phosphate buffer solution with pH 6.8) of Type I (Example 2), III (Example 3), V (Example 4) and VI crystals (Example 5) of 1-((1R,2R)-2-hydroxy-4,4-dimethyl-1,2,3,4-tetrahydronaphthalen-1-yl)-3-(5-methyl-6-(2-methylpyrimidin-5-yl)-2-phenylpyridin-3-yl)urea obtained in the above (Example 2) to (Example 5) was determined as follows:
Water was added a weighed potassium dihydrogen phosphate of 2.7 g to make 100 mL volume to prepare 0.2 mol/L potassium dihydrogen phosphate solution. Water was added a weighed disodium hydrogen phosphate […] of 7.2 g to make 100 mL volume to prepare 0.2 mol/L disodium hydrogen phosphate solution. A pH 6.8 phosphate buffer solution was prepared by diluting a mixture of 0.2 mol/L potassium dihydrogen phosphate solution (14.8 mL) and 0.2 mol/L disodium hydrogen phosphate solution (10.0 mL) with water (173.6 mL).
Approximately 1 mg of the each crystal from (Example 2) to (Example 5) was weighed into a screw tube, and a pH 6.8 phosphate buffer solution (1 mL) was added. An isothermal shaker (M-BR-022UP) was used to incubate the sample at 37° C. and 1000 rpm for 24 hours. 100 μL solution were sampled at 1, 2, 6, and 24 hours after the start of incubation, and were filtered using a centrifuge (HITACHI, Himac cF 9RX, at 25° C., at 1500 rpm, for 30 seconds) with a filter (Millipore: Multiscreen, MSSLBPC10) so as to remove insoluble materials. A 20 μL of the filtrate was quantified, and diluted with a solution (180 μL, pH 9.0) of 20 vol % tetrahydrofuran and 80 vol % ammonium bicarbonate aqueous solution (10 mM). A 10 μL of the prepared solution was quantified, and diluted with a solution (190 μL, pH 9.0) of 20 vol % tetrahydrofuran and 80 vol % ammonium bicarbonate aqueous solution (10 mM). The prepared solution was analyzed by ultra performance liquid chromatography (UPLC) under the following measurement conditions, and the concentration of the compound in the solution was calculated based on a previously prepared calibration curve. Three times of measurements were made for each example compound, and the mean values and standard deviations of the three measurements are shown as a result in Table 6.
<UPLC measurement conditions> Equipment: ACQUITY UPLC H-Class (Waters) Detector: PDA (200-500 nm) Column: BEH C18 2.1×50 mm Measurement wavelength: 270 nm Column temperature: 40° C. Injection amount: 10 μL Mobile phase: • Solvent A, acetonitrile; • Solvent B, 10 mM ammonium bicarbonate aqueous solution (pH 9.0) Gradient conditions: […]

Storage stability test = type: physicochemical
Method: For the stability test, approximately 20 mg of the test sample was stored at 25° C./60% RH or at 40° C./75% RH in open or closed condition for 1 month using a small environmental tester SH-641 (manufactured by Espec), and changes in purity and in crystalline form were observed.
For purity measurement, equipment of Waters ACQUITY UPLC H-Class (manufactured by Waters) and column of Waters ACQUITY BEH C18 (particle diameter […], size 2.1×50 mm) are used. For the mobile phase, 10 mmol/L ammonium bicarbonate buffer pH 9.0 and acetonitrile were used; and the test sample solution at 100 μg/mL in the mixture solvent of THF (tetrahydrofuran):10 mmol/L ammonium bicarbonate buffer (20:80) was prepared.
(Test Example 2) Storage Stability Test
The type I (Example 2), III (Example 3), V (Example 4) and VI (Example 5) crystals (each about 20 mg) of 1-((1R,2R)-2-hydroxy-4,4-dimethyl-1,2,3,4-tetrahydronaphthalen-1-yl)-3-(5-methyl-6-(2-methylpyrimidin-5-yl)-2-phenylpyridin-3-yl)urea obtained in the above Examples 2 to 5 were stored in glass bottles under the respective conditions described in Table 7. After completion of the storage period, the retrieved sample was confirmed on the purity by high performance liquid chromatography and on the crystal form by powder X-ray diffraction analysis as in the Examples.

[3] = Photostability test according to ICH Q1B; type: physicochemical
Method: (Test Example 3) Photostability Test
The type I (Example 2), III (Example 3), V (Example 4), and VI (Example 5) crystals (each about 20 mg) of 1-((1R,2R)-2-hydroxy-4,4-dimethyl-1,2,3,4-tetrahydronaphthalen-1-yl)-3-(5-methyl-6-(2-methylpyrimidin-5-yl)-2-phenylpyridin-3-yl)urea obtained in the above Examples 2 to 5 were placed in a transparent plastic container and covered, and were subjected to photostability test according to the ICH Q1B (Guidelines on Photostability Testing of New Active Substances and Medicinal Products) described in Table 8 (Here, the photostability test samples were stored at about 25° C. under separate lamps which respectively emits visible light and UV-A light so that the total light exposure should be 1.2 million lux hours and 200 W hours/m^2 or more, respectively. A 5-day study should be designated as “0.5 ICH” and a 10-day study as “1 ICH”). […] After completion of the test, the retrieved sample was confirmed on the purity by high performance liquid chromatography and on the crystal form by powder X-ray diffraction analysis as in the Examples.

[4] = 25° C./60% RH, closed for 1 month
[5] = 25° C./60% RH, open for 1 month
[6] = 40° C./75% RH, closed for 1 month
[7] = 40° C./75% RH, open for 1 month
[8] = Shielded from light by aluminum foil, 0.5 ICH
[9] = Shielded from light by aluminum foil, 1 ICH
[10] = Shielded from light by aluminum foil, Before the test

Sequence of human TrkA protein (P04629 33-796): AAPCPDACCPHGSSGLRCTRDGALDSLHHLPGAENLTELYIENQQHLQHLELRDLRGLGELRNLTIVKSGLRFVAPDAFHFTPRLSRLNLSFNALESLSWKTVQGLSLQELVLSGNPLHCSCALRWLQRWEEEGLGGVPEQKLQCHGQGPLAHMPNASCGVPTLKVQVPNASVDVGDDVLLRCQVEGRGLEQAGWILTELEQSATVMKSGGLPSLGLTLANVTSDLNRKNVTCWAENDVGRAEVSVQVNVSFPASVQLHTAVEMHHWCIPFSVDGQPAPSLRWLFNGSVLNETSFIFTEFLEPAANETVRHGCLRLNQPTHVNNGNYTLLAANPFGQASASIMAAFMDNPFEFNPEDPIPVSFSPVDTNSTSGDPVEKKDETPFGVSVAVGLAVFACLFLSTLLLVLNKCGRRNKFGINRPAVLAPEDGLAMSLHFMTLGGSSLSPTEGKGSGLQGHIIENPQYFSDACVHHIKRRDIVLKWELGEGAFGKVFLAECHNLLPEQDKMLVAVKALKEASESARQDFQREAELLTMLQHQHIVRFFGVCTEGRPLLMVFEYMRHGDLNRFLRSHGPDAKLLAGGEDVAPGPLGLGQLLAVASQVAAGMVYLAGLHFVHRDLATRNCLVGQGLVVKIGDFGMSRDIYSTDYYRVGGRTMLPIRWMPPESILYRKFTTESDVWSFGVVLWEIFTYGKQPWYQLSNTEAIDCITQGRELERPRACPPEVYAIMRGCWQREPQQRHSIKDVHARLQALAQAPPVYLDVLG

## Cc1ncc(-c2nc(-c3ccccc3)c(NC(=O)N[C@@H]3c4ccccc4C(C)(C)C[C@H]3O)cc2C)cn1 [Example 1, 1-((1R,2R)-2-hydroxy-4,4-dimethyl-1,2,3,4-tetrahydronaphthalen-1-yl)-3-(5-methyl-6-(2-methylpyrimidin-5-yl)-2-phenylpyridin-3-yl)urea]
Human TrkA protein; result in words
  TrkA inhibitory effect: excellent
[1]
  Abnormalities in the safety test: no abnormalities

## Cc1ncc(-c2nc(-c3ccccc3)c(NC(=O)N[C@@H]3c4ccccc4C(C)(C)C[C@H]3O)cc2C)cn1 [Example 3, 1-((1R,2R)-2-hydroxy-4,4-dimethyl-1,2,3,4-tetrahydronaphthalen-1-yl)-3-(5-methyl-6-(2-methylpyrimidin-5-yl)-2-phenylpyridin-3-yl)urea]
Human TrkA protein; TrkA enzyme, Kinase Tracer 236, TR-FRET
  IC50: ≤ 50 nM
[2]
  Solubility: 66.0 µg/mL (≈ 134 µM)
Storage stability test; [4]
  Chemical purity (%): 100.00%
  Crystalline form after completion of storage period: Type III crystal
Storage stability test; [5]
  Chemical purity (%): 100.00%
  Crystalline form after completion of storage period: Type III crystal
Storage stability test; [6]
  Chemical purity (%): 100.00%
  Crystalline form after completion of storage period: Type III crystal
Storage stability test; [7]
  Chemical purity (%): 100.00%
  Crystalline form after completion of storage period: Type III crystal
Storage stability test; Before the test
  Chemical purity (%): 100.00%
  Crystalline form after completion of storage period: Type III crystal
[3]; Exposure, 0.5 ICH (5-day)
  Chemical purity (%): 100.0%
  Crystalline form after completion of storage period: Type III crystal
[3]; Exposure, 1 ICH (10-day)
  Chemical purity (%): 100.0%
  Crystalline form after completion of storage period: Type III crystal
[3]; Exposure, Before the test
  Chemical purity (%): 100.0%
  Crystalline form after completion of storage period: Type III crystal
[3]; [8]
  Chemical purity (%): 100.0%
  Crystalline form after completion of storage period: Type III crystal
[3]; [9]
  Chemical purity (%): 100.0%
  Crystalline form after completion of storage period: Type III crystal
[3]; [10]
  Chemical purity (%): 100.0%
  Crystalline form after completion of storage period: Type III crystal
[3]; result in words, listed as type III crystal
  Stability against light: stable against light
